Series [1] deals with T1, δ opioid receptor (Rattus norvegicus, UniProt P33533).
T1 construct: tissue Pel-Freeze Biological Inc. (Rogers, Ark.); host or cells: rat whole brain
Description: radioligand binding, δ opioid receptor, rat brain membranes. To be noted: cell marked (rat), tritium-labeled Deltorphin II.

Series [2] concerns the target T2, μ opioid receptor (Rattus norvegicus, UniProt P33535).
T2 construct: tissue Pel-Freeze Biological Inc. (Rogers, Ark.); host or cells: rat whole brain
Description: radioligand binding, μ opioid receptor, rat brain membranes. To be noted: cell marked (rat), tritium-labeled DAMGO.

The target in series [3] is T3, κ opioid receptor (Cavia porcellus, UniProt P41144).
T3 construct: tissue Pel-Freeze Biological Inc. (Rogers, Ark.); host or cells: guinea pig cerebellum
T3 sequence (P41144 whole entry): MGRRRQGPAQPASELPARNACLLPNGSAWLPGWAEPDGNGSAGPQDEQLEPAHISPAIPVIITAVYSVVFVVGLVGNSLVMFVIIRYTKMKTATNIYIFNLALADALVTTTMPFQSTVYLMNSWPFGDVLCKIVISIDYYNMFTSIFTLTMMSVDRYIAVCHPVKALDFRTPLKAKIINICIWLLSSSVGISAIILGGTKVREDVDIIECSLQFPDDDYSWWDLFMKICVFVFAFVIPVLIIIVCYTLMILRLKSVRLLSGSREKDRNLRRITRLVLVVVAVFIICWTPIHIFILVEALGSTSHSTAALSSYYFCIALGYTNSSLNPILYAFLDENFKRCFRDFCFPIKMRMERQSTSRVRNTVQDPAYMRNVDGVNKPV
Description: radioligand binding, κ opioid receptor, guinea pig cerebellum. To be noted: tritium-labeled U69593.

Series [4] deals with guinea pig ileum. The series is described as follows: electrically stimulated guinea pig ileum (GPI) ED50. Type of series: cell-based. To be noted: Cavia porcellus; ED50, inhibition of electrically induced contractions. On the procedure:
Further the compounds of formula (1) were evaluated for in vitro opioid receptor activity in various receptor systems, including mouse vas deferens (Mouse Vas Deferens ED50), and guinea pig ileum (Guinea Pig Ileum ED50). The assay procedures used for such determinations of receptor activity are set out below.
Intact ileums (about 3 cm length) were removed from guinea pig and suspended with 1 g of tension in a bath chamber as described for the vasa deferentia. The ileums were stimulated with electrical square-wave pulses of 0.1-Hz, 1 msec pulse duration at supramaximal voltage.
The ED50 values were extrapolated from curves showing the dose concentration plotted against the response (J. A. H. Lord, A. A. Waterfield, J. Hughes, H. W. Kosterlitz, Nature 267, 495, (1977)).

Series [5] has as its system seizure-like convulsions in mice. The series is described as follows: mouse seizure-like convulsions. The format is in vivo. The procedure, abridged:
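Male CD-1 mice (Charles River, Raleigh, N.C.) of 20-25 g were dosed and watched for one hour to detect seizure-like convulsions mediated by central delta receptors. An event was counted when clonic or tonic/clonic muscle movements involved the whole body, usually followed by brief catalepsy, judged by no attempt to withdraw front paws from a bar 2-3 inches above the floor.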

Series [6] has as its system mouse vas deferens. Description: electrically stimulated mouse vas deferens (MVD) ED50. The format is cell-based. To be noted: ED50, inhibition of electrically induced contractions.
Series [7] is described as follows: rat analgesia. Type of series: in vivo.
In series [8] the test system is tail-pinch antinociception in mice. To be noted: in vivo; for mouse TP % MPE: iv, 10 mg/kg.

T1 sequence (P33533 whole entry): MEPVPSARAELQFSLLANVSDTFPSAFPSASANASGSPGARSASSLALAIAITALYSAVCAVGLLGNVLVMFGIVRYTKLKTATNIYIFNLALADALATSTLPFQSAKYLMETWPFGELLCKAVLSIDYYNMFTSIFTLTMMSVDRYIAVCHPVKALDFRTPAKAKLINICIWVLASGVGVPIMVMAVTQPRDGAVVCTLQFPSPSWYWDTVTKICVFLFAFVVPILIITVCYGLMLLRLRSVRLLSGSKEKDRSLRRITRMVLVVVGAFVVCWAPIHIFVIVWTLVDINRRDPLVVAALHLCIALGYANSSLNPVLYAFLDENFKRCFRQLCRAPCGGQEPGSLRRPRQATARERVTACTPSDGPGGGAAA
T2 sequence (P33535 whole entry): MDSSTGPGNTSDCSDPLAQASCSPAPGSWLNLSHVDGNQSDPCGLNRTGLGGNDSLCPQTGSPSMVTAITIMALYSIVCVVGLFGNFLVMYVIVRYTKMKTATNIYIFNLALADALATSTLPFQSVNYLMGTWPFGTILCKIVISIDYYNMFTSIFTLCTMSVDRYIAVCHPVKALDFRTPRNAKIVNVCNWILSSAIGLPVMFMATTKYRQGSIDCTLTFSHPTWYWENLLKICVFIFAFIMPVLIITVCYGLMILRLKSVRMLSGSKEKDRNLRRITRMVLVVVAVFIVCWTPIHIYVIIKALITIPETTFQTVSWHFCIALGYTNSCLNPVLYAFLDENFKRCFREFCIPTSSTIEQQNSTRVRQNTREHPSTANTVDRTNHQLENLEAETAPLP

In the case of `C[C@@H]1CN([C@@H](c2cccc(O)c2)c2cccc(C(=O)N3CCCN(CCC(=O)O)CC3)c2)[C@@H](C)CN1Cc1ccccc1`, the Ki in series [1] is 4 nM; in series [2] it was 3.9 nM; in series [3] it was 3830 nM. For the same molecule, the EC50 in series [4] amounted to 52.2 nM; in series [6] it was 0.52 nM. For the same molecule, the Seiz. in series [5] (20 mg/kg IV) and in series [5] (200 mg/kg PO) was 0% 200 mg/kg PO 0% 20 mg/kg IV each time.
For the molecule `C=CCN1C[C@H](C)N(C(c2cccc(O)c2)c2cccc(C(=O)N3CCCN(CC(=O)O)CC3)c2)C[C@H]1C` (stereo partly drawn), the results for the Ki in series [1], in series [2] and in series [3] were 3.53 nM, 3.03 nM and 12.7 nM, respectively. Also, the Seiz. in series [5] (3 mg/kg IV) amounted to 0%; in series [5] (10 mg/kg IV), 10%. The midpoint of the response in series [6], the EC50, lay at 4.7 nM.
As for `C=CCN1C[C@H](C)N(C(c2cccc(O)c2)c2cccc(C(=O)N3CCCN(C)CC3)c2)C[C@H]1C` (stereo partly drawn), the Ki in series [1] was 5.45 nM; in series [2], 1.58 nM; in series [3], 1.93 nM. Moreover, in series [5] (10 mg/kg IV), the Seiz. worked out at 0%. Besides, the EC50 in series [6] was determined as 26.3 nM. Besides, in series [7], the rat analg. result is recorded as “no rat analg”. The “mouse TP % MPE” value in series [8] is 0% 10 mg/kg IV (mouse TP- 54% MPE; no rat analg.).
For `C=CCN1C[C@H](C)N(C(c2ccc(C(=O)N3CCCN(CCCC(=O)OCC)CC3)cc2)c2cccc(O)c2)C[C@H]1C` (stereo partly drawn), the figures for the Ki in series [1], in series [2] and in series [3] were 1.9 nM, 2.6 nM and 1.2 nM, respectively. The figures for the EC50 in series [4] and in series [6] were 526 nM and 1.44 nM, respectively. In series [5] (10 mg/kg IV), this molecule yielded a Seiz. of 0% 10 mg/kg IV.
For the molecule `C=CCN1C[C@H](C)N(C(c2cccc(O)c2)c2cccc(C(=O)N3CCCNCC3)c2)C[C@H]1C` (stereo partly drawn), the Ki in series [1] came out at 4.68 nM; in series [2] it was 1.61 nM; in series [3], 1.6 nM. The molecule also showed a Seiz. in series [5] (10 mg/kg IV) of 45% 10 mg/kg IV. In series [6], this molecule showed an EC50 of 6.07 nM.
With `C=CCN1C[C@H](C)N([C@@H](c2cccc(O)c2)c2cccc(C(=O)N3CCCN(CCCCC(=O)O)CC3)c2)C[C@H]1C`, the Ki in series [1] was 6.43 nM; in series [2], 9 nM; in series [3], 27.7 nM. Further, the Seiz. in series [5] (10 mg/kg IV) and in series [5] (100 mg/kg SC) was 0% 10 mg/kg IV 0% 100 mg/kg SC each time. Moreover, the 50% effective concentration (EC50) in series [6] was 3.33 nM.
For `C=CCN1C[C@H](C)N([C@@H](c2cccc(O)c2)c2cccc(C(=O)N3CCCN(CCC(=O)O)CC3)c2)C[C@H]1C`, the Ki in series [1] stood at 3.03 nM; in series [2], 3.89 nM; in series [3], 9.85 nM. Besides, the EC50 in series [4] was 117 nM; in series [6], 5.39 nM. The molecule also showed a Seiz. in series [5] (10 mg/kg IV) of 0% 10 mg/kg IV.
Turning to `CN1CC[C@]23c4c5ccc(O)c4O[C@H]2[C@@H](O)C=C[C@H]3[C@H]1C5` [morphine, reference compound], the “maximum time of response in tail-pinch assay” value in series [8] (mouse) was found to be 20 s.
For `C=CCN1C[C@H](C)N(C(c2ccc(C(=O)N3CCCN(CCCC(=O)O)CC3)cc2)c2cccc(O)c2)C[C@H]1C` (stereo partly drawn), the inhibitory constant (Ki) in series [1] turned out to be 3.94 nM; in series [2], 16.1 nM; in series [3], 29.2 nM. Further, the figures for the EC50 in series [4] and in series [6] were 439 nM and 0.95 nM, respectively. For the same molecule, the Seiz. in series [5] (10 mg/kg IV) and in series [5] (100 mg/kg SC) was 0% 10 mg/kg IV 0% 100 mg/kg SC throughout.
As to `C=CCN1C[C@H](C)N(C(c2cccc(O)c2)c2cccc(C(=O)N3CCCN(CC(=O)OCC)CC3)c2)C[C@H]1C` (stereo partly drawn), the figures for the Ki in series [1], in series [2] and in series [3] were 1.35 nM, 3.33 nM and 4.15 nM, respectively. Further, in series [5] (10 mg/kg IV), the Seiz. is 25% 10 mg/kg IV. The same molecule had a 50% effective concentration (EC50) in series [6] of 1.36 nM.
On to `C=CCN1C[C@H](C)N([C@@H](c2cccc(O)c2)c2cccc(C(=O)N3CCCN(CCC(=O)OCC)CC3)c2)C[C@H]1C`, for which the Ki in series [1] was found to be 0.57 nM; in series [2] it was 0.55 nM; in series [3], 1.09 nM. The values for the EC50 in series [4] and in series [6] were 112 nM and 5.58 nM, respectively. For the same molecule, in series [5] (10 mg/kg IV), the Seiz. is on record as 30% 10 mg/kg IV.
With `CCOC(=O)CCN1CCCN(C(=O)c2cccc([C@H](c3cccc(O)c3)N3C[C@@H](C)N(Cc4ccccc4)C[C@@H]3C)c2)CC1`, the inhibition constant Ki in series [1] stood at 1.2 nM; in series [2], 0.75 nM; in series [3], 2.98 nM. In addition, the EC50 in series [4] was 836 nM; in series [6] it was 1.5 nM. Moreover, the Seiz. in series [5] (10 mg/kg IV) is on record as 80% 10 mg/kg IV (42% MPE mouse TP). Also, in series [8], the “mouse TP % MPE” value is given as 80% 10 mg/kg IV (42% MPE mouse TP).
Take `C=CCN1C[C@H](C)N([C@@H](c2cccc(O)c2)c2cccc(C(=O)N3CCCN(CCCC(=O)O)CC3)c2)C[C@H]1C`: the Ki in series [1] turned out to be 2.75 nM; in series [2], 5.57 nM; in series [3], 16.3 nM. The EC50 amounted to 186 nM in series [4] and 2.2 nM in series [6]. In series [5] (10 mg/kg IV), this molecule showed a Seiz. of 0% 10 mg/kg IV.
For `C=CCN1C[C@H](C)N([C@@H](c2cccc(O)c2)c2cccc(C(=O)N3CCCN(CCCCC(=O)OCC)CC3)c2)C[C@H]1C`, the Ki in series [1] was determined as 2.9 nM; in series [2], 1.25 nM; in series [3], 0.6 nM. The EC50 in series [4] was 231 nM; in series [6], 43.7 nM. The molecule further came in with a Seiz. in series [5] (10 mg/kg IV) of 0% 10 mg/kg IV.
Take `C=CCN1C[C@H](C)N([C@@H](c2cccc(O)c2)c2cccc(C(=O)N3CCCN(CCCC(=O)OCC)CC3)c2)C[C@H]1C`: the inhibitory constant (Ki) in series [1] worked out at 1.66 nM; in series [2], 1.76 nM; in series [3], 1.22 nM. Moreover, the EC50 in series [4] worked out at 198 nM; in series [6], 22.6 nM. The Seiz. in series [5] (10 mg/kg IV) turned out to be 0% 10 mg/kg IV.

Broadly, the Ki is a dissociation constant, usually derived from enzyme kinetics or from competition with a known ligand. Broadly, the EC50 is the concentration that produces a half-maximal response. A higher EC50 goes with weaker potency.
